Test results reported in ChEMBL document CHEMBL1131667, “4-Phenylthiazole derivatives inhibit IL-6 secretion in osteoblastic cells and suppress bone weight loss in ovariectomized mice” (Bioorg Med Chem Lett, 1999).
Values after ≈ are worked out from the molar mass of the structure shown.

Assays:
[1] = Inhibition the IL-6 secretion stimulated at a concentration of 10 ng/ml in osteoblastic MC3T3-E 1 cells.; assay type: functional; details: Mus musculus, MC3T3-E1
[2] = tested on: Mus musculus; assay: Effect on femoral weight loss in ovariectomized mice at a dose of 2.0mg/kg/day, ip; assay type: functional, organism-based
[3] = tested on: Mus musculus; assay: Effect on femoral weight loss in ovariectomized mice at a dose of 0.4 mg/kg/day, ip; assay type: functional, organism-based

IC50 [1] [µg/mL]	Structure (SMILES)	Recovery [2] [%]	Recovery [3] [%]
> 100	Nc1nc(-c2ccccc2)c(C(=O)O)s1	–	–
50 (≈ 223 µM)	Cc1sc(N)nc1-c1ccccc1Cl	–	–
8 (≈ 30.9 µM)	Cc1sc(N)nc1-c1ccc(Cl)cc1Cl	–	–
7 (≈ 31.8 µM)	COc1ccc(-c2nc(N)sc2C)cc1	–	–
> 100	CCOC(=O)c1sc(NC=O)nc1-c1ccccc1	–	–
27 (≈ 130 µM)	Cc1sc(N)nc1-c1ccc(F)cc1	–	–
3 (≈ 11.6 µM)	Cc1sc(N)nc1-c1ccc(C(F)(F)F)cc1	–	–
20 (≈ 78.5 µM)	Nc1nc(-c2ccc(Cl)cc2)c(C(=O)O)s1	8.6	7.1
6 (≈ 21.2 µM)	CCOC(=O)c1sc(N)nc1-c1ccc(Cl)cc1	–	–
> 100	CCc1sc(N)nc1-c1ccccc1	–	–
24 (≈ 117 µM)	Cc1ccc(-c2nc(N)sc2C)cc1	–	–
30 (≈ 129 µM)	CCOC(=O)c1scnc1-c1ccccc1	–	–
6 (≈ 24.2 µM)	CCOC(=O)c1sc(N)nc1-c1ccccc1	–	–

Continued, compound first:

Structure (SMILES)	IC50 [1] [µg/mL]	Recovery [2] [%]	Recovery [3] [%]
Cc1sc(N)nc1-c1ccc(O)cc1	1 (≈ 4.85 µM)	35.5	13.9
CCCNC(=O)c1sc(N)nc1-c1ccccc1	40 (≈ 153 µM)	–	–
Cc1sc(N)nc1-c1ccc(-c2ccccc2)cc1	39 (≈ 146 µM)	–	–
Cc1sc(N)nc1-c1cccc(Cl)c1	2.5 (≈ 11.1 µM)	–	–
Cc1sc(N)nc1-c1ccc(Cl)cc1	10 (≈ 44.5 µM)	57.8	22.8
CNc1sc(N)nc1-c1ccccc1	40 (≈ 195 µM)	–	–
Cc1sc(N)nc1-c1ccc(Cl)c(Cl)c1	35 (≈ 135 µM)	–	–
CCOC(=O)c1sc(-c2ccncc2)nc1-c1ccccc1	90 (≈ 290 µM)	–	–
Cc1sc(N)nc1-c1ccccc1	10 (≈ 52.6 µM)	–	–
Nc1nc(-c2ccccc2)cs1	60 (≈ 340 µM)	–	–
CCOC(=O)c1sc(NC)nc1-c1ccccc1	40 (≈ 152 µM)	–	–
CCOC(=O)c1sc(C)nc1-c1ccccc1	40 (≈ 162 µM)	–	–
